Results taken from PubChem BioAssay AID330 (DTP/NCI, 2004).
Values joined by “and” are separate entries in the source; they are usually repeats but may differ in a detail not shown here. Identical values can stand only once. Toxic doses and inconclusive results are not listed. Rule for the calls: active = survival T/C of 150% or more; inactive = T/C below 125% in these data.

Tested on: P388 leukemia ip, CD2F1 mice, survival T/C
Experiment: NCI In Vivo Anticancer Drug Screen. Data for tumor model P388 Leukemia (intraperitoneal) in CD2F1 (CDF1) mice
Details: endpoint: median survival time, higher = longer survival
Summary of the method: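 Mice carrying the transplanted tumor received test compound or vehicle. Survival was recorded in each group, and the value is the treated-group measurement divided by that of the vehicle-treated control group.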

[1] = dose: 50.0 mg/kg/injection, schedule: Q01DX005 (ip), vehicle: saline
[2] = dose: 100.0 mg/kg/injection, schedule: Q01DX005 (ip), vehicle: saline
[3] = dose: 60.0 mg/kg/injection, schedule: Q01DX005 (ip), vehicle: saline with Tween-80
[4] = dose: 120.0 mg/kg/injection, schedule: Q01DX005 (ip), vehicle: saline with Tween-80
[5] = dose: 240.0 mg/kg/injection, schedule: Q01DX005 (ip), vehicle: saline with Tween-80
[6] = dose: 50.0 mg/kg/injection, schedule: Q01DX009 (ip), vehicle: Klucel (hydroxypropylcellulose) (HPC)
[7] = dose: 50.0 mg/kg/injection, schedule: Q01DX005 (ip), vehicle: Klucel (hydroxypropylcellulose) (HPC)
[8] = dose: 60.0 mg/kg/injection, schedule: Q01DX005 (ip), vehicle: Klucel (hydroxypropylcellulose) (HPC)
[9] = dose: 120.0 mg/kg/injection, schedule: Q01DX005 (ip), vehicle: Klucel (hydroxypropylcellulose) (HPC)
[10] = dose: 25.0 mg/kg/injection, schedule: Q01DX005 (ip), vehicle: saline with Tween-80
[11] = dose: 50.0 mg/kg/injection, schedule: Q01DX005 (ip), vehicle: saline with Tween-80
[12] = dose: 100.0 mg/kg/injection, schedule: Q01DX005 (ip), vehicle: saline with Tween-80
[13] = dose: 200.0 mg/kg/injection, schedule: Q01DX005 (ip), vehicle: saline with Tween-80

Measured: T/C

CN(C)CCCNc1cc(O)c2c(c1O)C(=O)c1ccccc1C2=O
inactive: dose: 12.5 mg/kg/injection, schedule: Q04DX003 (ip), vehicle: water 102 % of control | dose: 25.0 mg/kg/injection, schedule: Q01DX009 (ip), vehicle: water 109 % of control | dose: 25.0 mg/kg/injection, schedule: Q04DX003 (ip), vehicle: water 100 % of control | dose: 50.0 mg/kg/injection, schedule: Q01DX009 (ip), vehicle: water 120 % of control | dose: 50.0 mg/kg/injection, schedule: Q04DX003 (ip), vehicle: water 115 % of control | dose: 88.0 mg/kg/injection, schedule: Q01DX009 (ip), vehicle: other 110 % of control | dose: 100.0 mg/kg/injection, schedule: Q01DX009 (ip), vehicle: water 116 % of control | dose: 100.0 mg/kg/injection, schedule: Q04DX003 (ip), vehicle: water 103 % of control | dose: 133.0 mg/kg/injection, schedule: Q01DX009 (ip), vehicle: other 117 % of control | dose: 200.0 mg/kg/injection, schedule: Q04DX003 (ip), vehicle: water 111 % of control

CCCCC(CC)C(=O)NCCCN(C)C (stereo unspecified)
inactive: [1] 99 % of control | [2] 99 % of control | dose: 200.0 mg/kg/injection, schedule: Q01DX005 (ip), vehicle: saline 94 % of control

CCCCOP(O)(=S)OCCCC.[Yb]
inactive: dose: 100.0 mg/kg/injection, schedule: Q04DX002 (ip), vehicle: saline with Tween-80 96 % of control | dose: 200.0 mg/kg/injection, schedule: Q04DX002 (ip), vehicle: saline with Tween-80 101 % of control | dose: 400.0 mg/kg/injection, schedule: Q04DX002 (ip), vehicle: saline with Tween-80 99 % of control

N/C(=N\N=C\c1cccnc1)SCCCCBr
inactive: dose: 0.78 mg/kg/injection, schedule: Q01DX001 (ip), vehicle: saline 100 % of control | dose: 0.78 mg/kg/injection, schedule: Q01DX009 (ip), vehicle: saline 110 % of control | dose: 1.56 mg/kg/injection, schedule: Q01DX001 (ip), vehicle: saline 101 % of control and 110 % of control | dose: 3.12 mg/kg/injection, schedule: Q01DX001 (ip), vehicle: saline 110 % of control

CC1COCCOCCOCC(C)OC(=O)CSCC(=O)O1 (stereo unspecified)
inactive: dose: 100.0 mg/kg/injection, schedule: Q04DX003 (ip), vehicle: saline 100 % of control | dose: 200.0 mg/kg/injection, schedule: Q04DX003 (ip), vehicle: saline 104 % of control | dose: 400.0 mg/kg/injection, schedule: Q04DX003 (ip), vehicle: saline 92 % of control

[Se]=[Re]=[Se]
inactive: [3] 96 % of control | [4] 98 % of control | [5] 109 % of control

CCN(CC)Cc1c[nH]c2ccccc12
inactive: dose: 12.5 mg/kg/injection, schedule: Q01DX009 (ip), vehicle: Klucel (hydroxypropylcellulose) (HPC) 102 % of control | dose: 25.0 mg/kg/injection, schedule: Q01DX009 (ip), vehicle: Klucel (hydroxypropylcellulose) (HPC) 103 % of control | [6] 97 % of control

O=C1C2CC34CCCN5CC1C1(c6ccccc6NC21CC3)C54 (stereo unspecified)
inactive: dose: 12.5 mg/kg/injection, schedule: Q01DX005 (ip), vehicle: Klucel (hydroxypropylcellulose) (HPC) 103 % of control | dose: 25.0 mg/kg/injection, schedule: Q01DX005 (ip), vehicle: Klucel (hydroxypropylcellulose) (HPC) 98 % of control | [7] 103 % of control

Cn1nnnc1-c1cccc(F)c1
inactive: dose: 50.0 mg/kg/injection, schedule: Q01DX001 (ip), vehicle: Klucel (hydroxypropylcellulose) (HPC) 101 % of control | dose: 100.0 mg/kg/injection, schedule: Q01DX001 (ip), vehicle: Klucel (hydroxypropylcellulose) (HPC) 102 % of control | dose: 200.0 mg/kg/injection, schedule: Q01DX001 (ip), vehicle: Klucel (hydroxypropylcellulose) (HPC) 104 % of control

CCOC(=O)/C=C1\CCC(C)n2c1nccc2=O (stereo unspecified)
inactive: [3] 97 % of control | [4] 101 % of control | [5] 98 % of control

O=S(=O)(O/C1=C/CCCCCC1)C(F)(F)F
inactive: dose: 50.0 mg/kg/injection, schedule: Q01DX009 (ip), vehicle: olive oil, sesame oil, peanut oil 97 % of control | dose: 100.0 mg/kg/injection, schedule: Q01DX009 (ip), vehicle: olive oil, sesame oil, peanut oil 113 % of control | dose: 200.0 mg/kg/injection, schedule: Q01DX009 (ip), vehicle: olive oil, sesame oil, peanut oil 103 % of control

CC1CCCCN1CC(C)(C)C (stereo unspecified)
inactive: [8] 100 % of control | [9] 93 % of control

CC1CC(=O)NN1 (stereo unspecified)
inactive: [8] 100 % of control | [9] 101 % of control | dose: 240.0 mg/kg/injection, schedule: Q01DX005 (ip), vehicle: Klucel (hydroxypropylcellulose) (HPC) 107 % of control

CCC(CC)C(=O)NCC(=O)NO
inactive: [10] 100 % of control | [11] 103 % of control | [12] 100 % of control | [13] 95 % of control

O=C(C[n+]1ccccc1Br)c1cccc([N+](=O)[O-])c1
inactive: dose: 6.25 mg/kg/injection, schedule: Q01DX009 (ip), vehicle: saline 103 % of control | dose: 12.5 mg/kg/injection, schedule: Q01DX009 (ip), vehicle: saline 107 % of control | dose: 25.0 mg/kg/injection, schedule: Q01DX009 (ip), vehicle: saline 99 % of control | dose: 50.0 mg/kg/injection, schedule: Q01DX009 (ip), vehicle: saline 103 % of control

C(C#CCN1CCOCC1)#CCN1CCOCC1
inactive: [6] 109 % of control and 89 % of control | dose: 100.0 mg/kg/injection, schedule: Q01DX009 (ip), vehicle: Klucel (hydroxypropylcellulose) (HPC) 101 % of control and 89 % of control | dose: 200.0 mg/kg/injection, schedule: Q01DX009 (ip), vehicle: Klucel (hydroxypropylcellulose) (HPC) 101 % of control and 93 % of control | dose: 400.0 mg/kg/injection, schedule: Q01DX009 (ip), vehicle: Klucel (hydroxypropylcellulose) (HPC) 98 % of control

CN(C)CCN1C(=O)C2(C)C3CCC(O3)C2(C)C1=O (stereo unspecified)
inactive: [11] 103 % of control | [12] 100 % of control | [13] 100 % of control

CCC(C)N(CCNc1cc(OC)cc2cccnc12)CCC(C)C (stereo unspecified)
inactive: [1] 100 % of control | [2] 97 % of control

COc1ccc(C)cc1NC(=O)Sc1ccc(Cl)cc1
inactive: [10] 110 % of control and 115 % of control | dose: 50.0 mg/kg/injection, schedule: Q01DX005 (ip), vehicle: saline + Tween-80 + alcohol 117 % of control | [11] 120 % of control and 123 % of control | dose: 100.0 mg/kg/injection, schedule: Q01DX005 (ip), vehicle: saline + Tween-80 + alcohol 119 % of control | [12] 122 % of control | [13] 106 % of control

COc1ccc(C(C#N)N2CCCC2)cc1 (stereo unspecified)
inactive: dose: 6.25 mg/kg/injection, schedule: Q04DX003 (ip), vehicle: other 100 % of control | dose: 12.5 mg/kg/injection, schedule: Q04DX003 (ip), vehicle: other 100 % of control

c1cnc2n[se]nc2c1
inactive: dose: 6.25 mg/kg/injection, schedule: Q04DX002 (ip), vehicle: saline 113 % of control | dose: 12.5 mg/kg/injection, schedule: Q04DX002 (ip), vehicle: saline 97 % of control

Cn1cnc([N+](=O)[O-])c1Sc1nnc(-c2ccccc2)c(-c2ccccc2)n1
inactive: [7] 88 % of control | dose: 100.0 mg/kg/injection, schedule: Q01DX005 (ip), vehicle: Klucel (hydroxypropylcellulose) (HPC) 86 % of control | dose: 200.0 mg/kg/injection, schedule: Q01DX005 (ip), vehicle: Klucel (hydroxypropylcellulose) (HPC) 92 % of control
